Test results published in PubChem BioAssay (NCI).
“And” between values parts separate entries of the source, which are not always exact repeats. Equal entries are not always repeated.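 Step 1: Grow cells in 96-well plates. Step 2: Expose to compound for 48 hours at 5 concentrations. Step 3: Interpolate endpoints linearly; if unreached, use highest concentration. Abbreviation: GI50, concentration required for 50% inhibition of growth. At the TGI there is no net growth.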

test system: OVCAR-3 ovarian; test: inhibition of tumour cell growth, NCI panel, 48 h

Q: `COc1ccnc2c1C(=O)c1nc3ccccc3c3ccnc-2c13` was tested. Which TGI did it give?
A: > 100 µM

Q: How did the TGI turn out when `O=C(O)c1ccc(NNc2cc(=O)[nH]c(=O)[nH]2)cc1` was run?
A: > 100 µM

Q: With `COc1ccc2c(c1)CCc1c-2[nH]c2ccc(OC)cc12` as the compound, how does the TGI read?
A: > 100 µM

Q: Which TGI does the source give for `COC(=O)C1OC(Oc2cc(O)c3c(=O)cc(-c4ccc(O)cc4)oc3c2)C(O)C(O)C1O` (centres undefined) here?
A: > 100 µM

Q: For `C=CCn1c(=O)n(CC=C)c(=O)n(CC=C)c1=O`, which TGI is on record?
A: > 100 µM

Q: How did the TGI turn out when `COc1cc(/C=C2\C[C@H]3[C@@H]4CC=C5C[C@@H](O)CC[C@]5(C)[C@H]4CC[C@]3(C)C2=O)cc(OC)c1OC` was run?
A: > 100 µM

Q: For `CC1=C(Br)C(Br)=C(C)S1=O`, which TGI is on record?
A: 23.9 µM

Q: `Cc1cc(C)cc(C(=N)c2ccccc2Cc2cccc3ccccc23)c1` was tested. Which TGI did it give?
A: 32.9 µM

Q: For `O=C1C(Cl)C(c2ccccc2)N1n1cnc2ccccc2c1=O` (centres undefined), which TGI is on record?
A: > 100 µM

Q: Which TGI does the source give for `CN(C)C(=O)OCOC(=O)N(C)C` here?
A: > 100 µM

Q: With `CC(=O)OCC1OC(Nc2ncc(-c3ccc(C)cc3)s2)C(OC(C)=O)C(OC(C)=O)C1OC(C)=O` (centres undefined) as the compound, how does the TGI read?
A: > 88.1 µM

Q: `CNC(=S)N/N=C(C)\C(=N/NC(=S)NC)c1ccccc1` was tested. Which TGI did it give?
A: > 100 µM

Q: With `CCCCN1C=CN2c3nc4cc(C)c(C)cc4n3C(C(=O)OC)=C(C(=O)OC)C12` (centres undefined) as the compound, how does the TGI read?
A: > 100 µM

Q: With `C#CCn1ncc2c(SCc3ccccc3)ncnc21` as the compound, how does the TGI read?
A: > 100 µM

Q: For `CCCCCC(C[N+]1(C)CCOCC1)C(=O)/C=C/c1ccccc1` (centres undefined), which TGI is on record?
A: 27.4 µM

Q: How did the TGI turn out when `CC1=CC(C2/C(=N/O)C=C(C)CC2(C)C)C(O)C(C)(C)C1` (centres undefined) was run?
A: 23.3 µM

Q: `C/C(=C1/CCCC2(N=NCC2c2ccccc2)C1=O)c1ccccc1` (centres undefined) was tested. Which TGI did it give?
A: 40.3 µM

test system: OVCAR-4 ovarian; test: inhibition of tumour cell growth, NCI panel, 48 h

Q: With `COc1ccc2c3c1O[C@H]1C(O)CCC4(O)[C@@H](C2)NCC[C@]314` (some centres undefined) as the compound, how does the TGI read?
A: > 100 µM

Q: With `N#CSc1nc[nH]c1C(N)=O` as the compound, how does the TGI read?
A: > 100 µM

Q: How did the TGI turn out when `CN(C)C(=O)NCCN1CCCCCc2ccccc21` was run?
A: > 100 µM

Q: Which TGI does the source give for `Cc1ccc2c(c1CCCC(C)(C)O)C(=O)C(=O)C(C(C)C)=C2O` here?
A: > 100 µM

Q: For `C=CCN1C[C@H](C)N([C@H](c2ccc(C(=O)N(CC)CCO)cc2)c2cccc(OC)c2)C[C@H]1C`, which TGI is on record?
A: > 100 µM

Q: Which results are given for `C=C1C(=O)O[C@H]2[C@H]1[C@@H](OC(=O)C=C(C)C)CC1=C[C@@H](C[C@@]3(C)O[C@@H]23)OC1=O`?
A: GI50: 4.55 µM; TGI: 20.6 µM and 13.7 µM

Q: How did the TGI turn out when `CC(=O)c1csc2c1C(=O)c1scc(C(C)=O)c1C2=O` was run?
A: 1.65 µM

Q: Which TGI does the source give for `O=C1NC(=O)C(CCO)(c2ccccc2)C(=O)N1` here?
A: > 100 µM

Q: `Cc1ccc(C2CC(c3ccco3)=NN2c2ccccc2)o1` (centres undefined) was tested. Which TGI did it give?
A: > 100 µM

Q: `COC(=O)C(=C/c1ccc(OC)cc1)/C(C(=O)O)=C(/C)c1ccccc1` was tested. Which TGI did it give?
A: > 100 µM

Q: With `COC(=O)c1ccc(/C=C2\N=C(C)OC2=O)cc1` as the compound, how does the TGI read?
A: > 100 µM

Q: With `Nc1ccc(C(=O)NN2C(=O)C(Cl)C2c2ccccc2Cl)cc1` (centres undefined) as the compound, how does the TGI read?
A: 27.1 µM

Q: Which TGI does the source give for `CCOC(=O)c1csc(NC(=O)C(C)N2CCCCC2)n1` (centres undefined) here?
A: > 100 µM

Q: Which TGI does the source give for `CCN1CCN(c2ccc(Nc3ccnc4ccc5nn(C)nc5c34)cc2)CC1` here?
A: 26.1 µM

Q: `Cc1cccc2c1Oc1cc(Cl)ccc1C2NC(=O)CCN1CCOCC1` (centres undefined) was tested. Which TGI did it give?
A: > 100 µM

Q: `c1cc(-c2ncc(-c3ccc4c(c3)CCCO4)o2)ccn1` was tested. Which TGI did it give?
A: > 100 µM

Q: `COc1ccnc2c1C(=O)c1nc3ccccc3c3ccnc-2c13` was tested. Which TGI did it give?
A: 2.65 µM

Q: How did the TGI turn out when `CCN(CC)CCn1nc(N)c2nc3cc(Cl)ccc3nc21` was run?
A: > 100 µM

Q: `O=C(O)c1ccc(NNc2cc(=O)[nH]c(=O)[nH]2)cc1` was tested. Which TGI did it give?
A: > 100 µM

Q: `COc1ccc2c(c1)CCc1c-2[nH]c2ccc(OC)cc12` was tested. Which TGI did it give?
A: > 100 µM

Q: With `COC(=O)C1OC(Oc2cc(O)c3c(=O)cc(-c4ccc(O)cc4)oc3c2)C(O)C(O)C1O` (centres undefined) as the compound, how does the TGI read?
A: > 100 µM

Q: `COc1cc(/C=C2\C[C@H]3[C@@H]4CC=C5C[C@@H](O)CC[C@]5(C)[C@H]4CC[C@]3(C)C2=O)cc(OC)c1OC` was tested. Which TGI did it give?
A: 96.6 µM

Q: `CC1=C(Br)C(Br)=C(C)S1=O` was tested. Which TGI did it give?
A: > 100 µM

Q: `CC1(C)c2ccccc2C(=O)C12CCC(=O)CC2` was tested. Which TGI did it give?
A: > 100 µM

Q: For `Cc1cc(C)cc(C(=N)c2ccccc2Cc2cccc3ccccc23)c1`, which TGI is on record?
A: 33.7 µM

Q: With `Cn1ccc(C(=O)NCCOCCNC(=O)c2ccn(C)c(=O)c2O)c(O)c1=O` as the compound, how does the TGI read?
A: > 100 µM

Q: How did the TGI turn out when `O=C1C(Cl)C(c2ccccc2)N1n1cnc2ccccc2c1=O` (centres undefined) was run?
A: > 100 µM

Q: Which TGI does the source give for `CN(C)C(=O)OCOC(=O)N(C)C` here?
A: > 100 µM

Q: `CCOC(=O)C1=C(Nc2cccc(OC)c2)OCC1=O` was tested. Which TGI did it give?
A: > 100 µM

Q: With `CC(=O)OCC1OC(Nc2ncc(-c3ccc(C)cc3)s2)C(OC(C)=O)C(OC(C)=O)C1OC(C)=O` (centres undefined) as the compound, how does the TGI read?
A: 60.6 µM

Q: Which TGI does the source give for `CCCCN1C=CN2c3nc4cc(C)c(C)cc4n3C(C(=O)OC)=C(C(=O)OC)C12` (centres undefined) here?
A: > 100 µM

Q: For `C#CCn1ncc2c(SCc3ccccc3)ncnc21`, which TGI is on record?
A: > 100 µM

Q: For `CCCCCC(C[N+]1(C)CCOCC1)C(=O)/C=C/c1ccccc1` (centres undefined), which TGI is on record?
A: 15.9 µM

Q: `CC1=CC(C2/C(=N/O)C=C(C)CC2(C)C)C(O)C(C)(C)C1` (centres undefined) was tested. Which TGI did it give?
A: 29.8 µM

Q: How did the TGI turn out when `C/C(=C1/CCCC2(N=NCC2c2ccccc2)C1=O)c1ccccc1` (centres undefined) was run?
A: > 100 µM

test system: OVCAR-5 ovarian; test: inhibition of tumour cell growth, NCI panel, 48 h

Q: Which TGI does the source give for `COc1ccc2c3c1O[C@H]1C(O)CCC4(O)[C@@H](C2)NCC[C@]314` (some centres undefined) here?
A: > 100 µM
